In patent publication US20070093520A1, “Method of treatment of diarrhea-predominant irritable bowel syndrome in a subject” (priority 2005, published 2007):

Test system: diarrhea-predominant IBS subjects
Assay: 3007 Study: open-label 52-week safety study, adverse events and withdrawals
Details: Overall

Cc1nccn1C[C@H]1CCc2c(c3cccc4c3n2CCC4)C1=O [cilansetron, (R)-(−)-4,5,6,8,9,10-hexahydro-10-[(2-methyl-1H-imidazol-1-yl)methyl]-11H-pyrido-[3,2,1-jk]-carbazol-11-one]
11 (2%) n (%): TEAE: Cough | TEAE: Dental Infections - Pathogen Class Unspecified
9 (2%) n (%): TEAE: Depression
12 (2%) n (%): TEAE: Coughing and Associated Symptoms
6 (1%) n (%): TEAE: Basal Cell Carcinoma | TEAE: Bursal Disorders | TEAE: Dermatitis and Eczema | TEAE: Disturbances in Initiating and Maintaining Sleep | TEAE: Dizziness | TEAE: Elevated Cholesterol
128 (24%) n (%): TEAE: Constipation
5 (1%) n (%): TEAE: Breast Disorders NEC*
7 (1%) n (%): TEAE: Bladder and Urethral Symptoms | TEAE: Chest Pain
13 (2%) n (%): TEAE: Depressive Disorders | TEAE: Dyspepsia | TEAE: Eye Disorders
27 (5%) n (%): TEAE: Blood Creatine Phosphokinase Increased
31 (6%) n (%): TEAE: Diarrhoea NOS | TEAE: Faecal Occult Blood Positive
1 (<1%) n (%): TEAE: Atrial Fibrillation | TEAE: Atrioventricular Block First Degree | TEAE: Bacteria Identification and Serology (Excl Mycobacteria) | TEAE: Behaviour and Socialisation Disturbances | TEAE: Benign Ovarian Tumour* | TEAE: Biliary Tract Disorder NOS | TEAE: Bilirubin Urine | TEAE: Binocular Eye Movement Disorder NOS | TEAE: Bladder Disorders NEC | TEAE: Bladder Infection NOS | TEAE: Bladder Infections and Inflammations | TEAE: Bladder Prolapse | TEAE: Blood Creatine Phosphokinase Mb Increased | TEAE: Blood Potassium Increased | TEAE: Blood Sodium Increased | TEAE: Bone Density Decreased | TEAE: Bone Disorder NOS | TEAE: Bone Injury | TEAE: Bone Neoplasm Malignant | TEAE: Bone Neoplasms Malignant (Excl Sarcomas) | TEAE: Bone Spur | TEAE: Bradyarrhythmia | TEAE: Breast Calcifications* | TEAE: Breast Disorder NOS* | TEAE: Breath Sounds Decreased | TEAE: Bronchopneumonia NOS | TEAE: Bruising, Ecchymosis and Purpura | TEAE: Bundle Branch Block Right | TEAE: Calculus Ureteric | TEAE: Cardiac Auscultatory Investigations | TEAE: Cardiac Fibrillation NOS | TEAE: Cardiac Flutter | TEAE: Cardiac Murmur NOS | TEAE: Carotid Bruit | TEAE: Cartilage Disorder NOS | TEAE: Cartilage Disorders | TEAE: Cataract Unilateral | TEAE: Cellulitis | TEAE: Cervical Spasm | TEAE: Change in Bowel Habit NOS | TEAE: Chapped Lips | TEAE: Chest Discomfort | TEAE: Chest Tightness | TEAE: Colitis (Excl Infective) | TEAE: Colitis Ischaemic | TEAE: Colonic Polyp | TEAE: Congenital, Familial and Genetic Disorders | TEAE: Conjunctivitis | TEAE: Conjunctivitis Allergic | TEAE: Cyst NOS | TEAE: Cystitis Interstitial | TEAE: Cystitis NOS | TEAE: Dacryostenosis Acquired | TEAE: Deafness NOS | TEAE: Dental Disorders NEC | TEAE: Dermatitis Allergic | TEAE: Dermatitis Ascribed to Specific Agent | TEAE: Dermatitis Medicamentosa | TEAE: Dermatitis NOS | TEAE: Dermographism | TEAE: Diabetes Mellitus Non-Insulin-Dependent | TEAE: Drug Hypersensitivity | TEAE: Dysarthria | TEAE: Dysfunctional Uterine Bleeding* | TEAE: Dyshidrosis | TEAE: Dyskinesias and Movement Disorders NEC | TEAE: Dysuria | TEAE: Electrocardiogram Qrs Complex Abnormal | TEAE: Electrocardiogram T Wave Inversion | TEAE: Enteritis | TEAE: Epigastric Discomfort | TEAE: Erythema | TEAE: Erythemas | TEAE: Eye Injuries NEC | TEAE: Faecal Impaction
5 (<1%) n (%): TEAE: Atopic Disorders | TEAE: Blood Pressure Increased | TEAE: Blood and Lymphatic System Disorders | TEAE: Dermal and Epidermal Conditions NEC | TEAE: Diarrhoea Aggravated | TEAE: Ear Infections
8 (1%) n (%): TEAE: Blood in Stool
3 (<1%) n (%): TEAE: Back Injury NOS | TEAE: Back Pain Aggravated | TEAE: Blood Alkaline Phosphatase NOS Increased | TEAE: Bone Disorders NEC | TEAE: Breast Mass NOS* | TEAE: Breathing Abnormalities | TEAE: Bronchitis Acute NOS | TEAE: Bursitis | TEAE: Calculus Renal NOS | TEAE: Carpal Tunnel Syndrome | TEAE: Contusion | TEAE: Dental Pain and Sensation Disorders | TEAE: Diabetes Mellitus (Incl Subtypes) | TEAE: Dyspnoea NOS
10 (2%) n (%): TEAE: Blood Triglycerides Increased | TEAE: Blood Urine Present | TEAE: Ear and Labyrinth Disorders
2 (<1%) n (%): TEAE: Blood Glucose Increased | TEAE: Blood Uric Acid Increased | TEAE: Breast Cancer NOS* | TEAE: Breast and Nipple Neoplasms Malignant* | TEAE: Bunion | TEAE: Candidal Infection NOS | TEAE: Carbohydrate Tolerance Analyses (Incl Diabetes) | TEAE: Cardiac Conduction Disorders | TEAE: Cataracts (Excl Congenital) | TEAE: Cerumen Impaction | TEAE: Chest Wall Pain | TEAE: Cholecystitis and Cholelithiasis | TEAE: Cholelithiasis | TEAE: Conjunctival Infections, Irritations and Inflammations | TEAE: Dehydration | TEAE: Dermatitis Contact | TEAE: Diabetes Mellitus Aggravated | TEAE: Diaphragmatic Hernias | TEAE: Diarrhoea Haemorrhagic | TEAE: Diverticulitis NOS | TEAE: Diverticulum Inflammations | TEAE: Dry Eye NOS | TEAE: Dry Mouth | TEAE: Dyspepsia Aggravated | TEAE: ECG Investigations | TEAE: Ear Disorders NEC | TEAE: Ear Pain | TEAE: Eczema | TEAE: Endometriosis* | TEAE: Eructation | TEAE: External Ear Disorders NEC | TEAE: Faecal Abnormality NOS
39 (7%) n (%): TEAE: Diarrhoea (Excl Infective)
23 (4%) n (%): TEAE: Bronchitis NOS
18 (3%) n (%): TEAE: Back Pain
19 (4%) n (%): TEAE: Blood Cholesterol Increased | TEAE: Cholesterol Analyses
17 (3%) n (%): TEAE: Dyspeptic Signs and Symptoms
4 (<1%) n (%): TEAE: Blood Bilirubin Increased | TEAE: Blood Creatinine Increased | TEAE: Bronchospasm and Obstruction | TEAE: Candida Infections | TEAE: Cardiac Signs and Symptoms NEC | TEAE: Connective Tissue Disorders (Excl Le) | TEAE: Depression Aggravated | TEAE: Disturbances in Consciousness NEC | TEAE: Ear Infection NOS | TEAE: Endocrine Disorders | TEAE: Faecal Incontinence
16 (3%) n (%): TEAE: Cardiac Disorders
